# In US20220088100A1, “COSMETIC, PHARMACEUTICAL AND NUTRACEUTICAL USE OF AN EXTRACT DERIVED FROM CANNABISSATIVA CELL CULTURES” (ARTERRA BIOSCIENCE S.P.A., priority 2018, published 2022):
# Where a name gives a salt, the structure may show the parent alone.
# Tested on: histamine production in RAW 264.7 cells (macrophages)
# Test: Histamine content in macrophages stressed with CGRP
# Format: cell-based
# Conditions: RAW 264.7, 50 μg/ml 2 h, then 10 nM CGRP 16 h; reduction compared with that of the extract
# Description: To determine whether the plant cell culture extract according to the invention was able to reduce the production of histamine induced by the CGRP peptide in the immune system cells, an assay was conducted for the quantization of the histamine content in macrophages subjected to a stress condition by the CGRP neuropeptide.
# RAW 264.7 cells were seeded in 96-well plates in an initial number of 5×10^4, and after 16 h, they were treated with different doses of the extract or with the anti-histamine compound cetirizine dihydrochloride (50 μg/ml), used as a positive control of the experiment. After 2 h of treatment with the extract or with cetirizine, the production of histamine was induced by the treatment with 10 nM of CGRP and, after 16 h, the amount of histamine was measured by adding 100 μl of methanol containing 0.4 M NaOH and 1 mg/ml of o-Phthaldialdehyde (OPT). After 10 minutes of incubation at room temperature, 50 μl of 0.1M HCl was added to each well to stop the reaction. Fluorescence was measured at 443 nm using a 360 nm excitation wavelength from the multi-plate reader, Victor3 (Perkin Elmer). The histamine content was calculated as a percentage of the value of the control cells stressed with 10 nM CGRP, arbitrarily set as 100%.
structure (smiles),measurement,value
"O=C(O)COCCN1CCN(C(c2ccccc2)c2ccc(Cl)cc2)CC1 (stereo not shown) [cetirizine, cetirizine dihydrochloride]","production of histamine in macrophages, positive control",similarly
